Here are results for one molecule from ChEMBL document CHEMBL3046079, “Synthesis, herbicidal activity, and mode of action of IR 5790” (J Agric Food Chem, 2001).

The target in series [1] is T1, Putative protoporphyrinogen IX oxidase (Cucumis sativus) (UniProt C6L817).
T1 sequence (whole entry): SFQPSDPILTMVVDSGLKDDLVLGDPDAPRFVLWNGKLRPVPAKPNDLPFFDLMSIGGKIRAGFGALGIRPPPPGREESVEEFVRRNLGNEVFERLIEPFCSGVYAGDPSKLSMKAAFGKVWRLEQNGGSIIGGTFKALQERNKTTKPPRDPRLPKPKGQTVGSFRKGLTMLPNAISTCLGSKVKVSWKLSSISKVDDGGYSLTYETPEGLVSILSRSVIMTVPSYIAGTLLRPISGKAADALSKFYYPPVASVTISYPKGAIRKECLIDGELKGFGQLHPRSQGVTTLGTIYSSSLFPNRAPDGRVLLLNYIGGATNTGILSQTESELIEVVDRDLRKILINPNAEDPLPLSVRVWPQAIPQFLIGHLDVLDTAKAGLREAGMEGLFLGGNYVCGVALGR
As to the kind of experiment: Inhibition of protoporphyrin oxidase in Cucumis sativus (cucumber) cotyledon disc assessed as increase in extraplastidic protoporphyrin 9 accumulation at 100 uM incubated in dim light for 2 hr by HPLC analysis relative to control.

Series [2] relates to Panicum dichotomiflorum. As to the kind of experiment: Post-emergence herbicidal activity against Panicum dichotomiflorum assessed as injury at 15 g/ha applied at 15 days post-sowing measured after 15 days relative to control. It is filed as functional.
The nature of series [3]: Toxicity in po dosed Rattus norvegicus (rat). It counts as organism-based. Conditions: in vivo.
The subject of series [4] is Avena fatua. Description: Pre-emergence herbicidal activity against Avena fatua assessed as injury at 50 g/ha applied at 24 hr post-sowing measured after 28 days relative to control. It counts as functional.
A short description of series [5]: Solubility of the compound in organis solvent. It is filed as physicochemical.
The test system of series [6] is Persicaria maculosa. As to the kind of experiment: Post-emergence herbicidal activity against Persicaria maculosa assessed as injury at 15 g/ha applied at 15 days post-sowing measured after 15 days relative to control. It is filed as functional.
Series [7] relates to Echinochloa crus-galli. As to the kind of experiment: Pre-emergence herbicidal activity against Echinochloa crus-galli (barnyard grass) assessed as injury at 150 g/ha applied at 24 hr post-sowing measured after 28 days relative to control. It is filed as functional.
For series [8], the system named is Brassica napus. Description: Phytotoxicity against Brassica napus (oilseed rape) assessed as injury at 150 g/ha applied as pre-emergent treatment at 24 hr post-sowing measured after 28 days relative to control. It is filed as organism-based. Conditions: in vivo, other, 672 h.
Series [9] concerns Glycine max. As to the kind of experiment: Phytotoxicity against Glycine max (soybean) assessed as injury at 150 g/ha applied as pre-emergent treatment at 24 hr post-sowing measured after 28 days relative to control. It is filed as organism-based. As to conditions: in vivo, other, 672 h.
Series [10] deals with Papaver rhoeas. As to the kind of experiment: Post-emergence herbicidal activity against Papaver rhoeas assessed as injury at 150 g/ha applied at 15 days post-sowing measured after 15 days relative to control. It is filed as functional.
Series [11] relates to Ipomoea purpurea. Description: Pre-emergence herbicidal activity against Ipomoea purpurea (common morning-glory) assessed as injury at 50 g/ha applied at 24 hr post-sowing measured after 28 days relative to control. It is filed as functional.
In series [12] the test system is Persicaria maculosa. As to the kind of experiment: Post-emergence herbicidal activity against Persicaria maculosa assessed as injury at 5 g/ha applied at 15 days post-sowing measured after 15 days relative to control. It counts as functional.
Series [13] concerns Oryza sativa. As to the kind of experiment: Phytotoxicity against Oryza sativa (rice) assessed as injury at 150 g/ha applied as post-emergent treatment at 15 days post-sowing measured after 15 days relative to control. It counts as organism-based. As to conditions: in vivo, other, 360 h.
Series [14] relates to Abutilon theophrasti. Description: Post-emergence herbicidal activity against Abutilon theophrasti (velvetleaf) assessed as injury at 15 g/ha applied at 15 days post-sowing measured after 15 days relative to control. It is filed as functional.
The subject of series [15] is Portulaca oleracea. Description: Post-emergence herbicidal activity against Portulaca oleracea assessed as injury at 15 g/ha applied at 15 days post-sowing measured after 15 days relative to control. It counts as functional.
Series [16] deals with Stellaria media. As to the kind of experiment: Pre-emergence herbicidal activity against Stellaria media assessed as injury at 150 g/ha applied at 24 hr post-sowing measured after 28 days relative to control. It counts as functional.
Series [17] deals with T1, Putative protoporphyrinogen IX oxidase (Cucumis sativus). Description: Inhibition of protoporphyrin oxidase in Cucumis sativus (cucumber) cotyledon disc assessed as light-dependent membrane damage at 1 uM incubated for 20 hr in dark followed by 8 hr in presence of light measured as electrolyte leakage relative to control.
Series [18] relates to Chenopodium album. Description: Pre-emergence herbicidal activity against Chenopodium album assessed as injury at 150 g/ha applied at 24 hr post-sowing measured after 28 days relative to control. It is filed as functional.
For series [19], the system named is Gossypium hirsutum. As to the kind of experiment: Phytotoxicity against Gossypium hirsutum (cotton) assessed as injury at 150 g/ha applied as post-emergent treatment at 15 days post-sowing measured after 15 days relative to control. It counts as organism-based. As to conditions: in vivo, other, 360 h.
Series [20] relates to Setaria viridis. As to the kind of experiment: Post-emergence herbicidal activity against Setaria viridis (green foxtail) assessed as injury at 50 g/ha applied at 15 days post-sowing measured after 15 days relative to control. It counts as functional.
Series [21] relates to Oryza sativa. Description: Phytotoxicity against Oryza sativa (rice) assessed as injury at 150 g/ha applied as pre-emergent treatment at 24 hr post-sowing measured after 28 days relative to control. It is filed as organism-based. As to conditions: in vivo, other, 672 h.
The test system of series [22] is Gossypium hirsutum. As to the kind of experiment: Phytotoxicity against Gossypium hirsutum (cotton) assessed as injury at 50 g/ha applied as post-emergent treatment at 15 days post-sowing measured after 15 days relative to control. It is filed as organism-based. As to conditions: in vivo, other, 360 h.
Series [23] has as its system Matricaria chamomilla. Description: Pre-emergence herbicidal activity against Matricaria chamomilla assessed as injury at 50 g/ha applied at 24 hr post-sowing measured after 28 days relative to control. It is filed as functional.

Each structure is given as a SMILES string. The source made the active and inactive calls. No cut-off for these calls is given here.

For `C#CCOc1cc(-n2nc(C(C)(C)C)sc2=O)c(Cl)cc1Cl`, the fold change (FC) in [1] amounted to 292. Also, the Activity in series [2] worked out at 0%; in series [4], 0%; in series [6] it was 70%; in series [7], 70%; in series [8] it was 0%; in series [9] it was 0%. Besides, the Activity in series [10] came out at 30%; in series [11], 0%; in [12], 30%; in series [13], 0%; in [14], 30%; in series [15], 70%. The Activity in series [16] is reported as 30%; in series [18], 90%; in [19], 70%; in [20] it was 10%; in series [21], 0%; in [22] it was 30%. Besides, the Activity in [23] was 0%. In addition, the LD50 in [3] is above 4000 mg/kg. In series [5], the solubility is above 250 mg/mL. In addition, the inhibition entry in series [17] is “inactive”.

Broadly, the LD50 is the dose expected to kill half of the subjects tested. As a reminder, the solubility is how much of the substance goes into solution per volume.
